Patent US9624211B2, “Anti-cancer compounds” (Board of Regents, The University of Texas System, priority 2013, dated 2017)
Where two headings read alike, the source gives them in different places.

Legend:
[1] = test system: p53-deficient prostate cancer cells; assay: Cell senescence assay (SA-b-gal); type: cell-based
Method: (§1) For Skp2 inhibitor administration, 5-10×10^3 of cells with were seeded in 12 wells in triplicate, 24 h later, treated with compound #25 (refreshed every two days). Four days later, cells were harvested, stained with trypan blue, and viable cells were counted directly under the microscope using hemocytometer. For doxorubicin treatment, 8×10^3 of PC3 cells with were seeded in 12 wells in triplicate, 24 h later, treated with various dose of compound #25 in the presence or absence of 10 nM doxorubicin or 25 ng/ml cyclophosphamide for four and three days, respectively (refreshed every two days). After treatment, cells were harvested, stained with trypan blue, and viable cells were counted directly under the microscope using hemocytometer. Cellular senescence was determined by assessing SA-b-gal activity using senescence detection kit according to manufacturers' standard procedures (Calbiochem).

[2] = test system: tumorigenic lung cancer cells; assay: Cell survival assay, lung cancer cells and normal fibroblasts; type: cell-based
Method: as §1

[3] = test system: prostate CSCs; assay: ALDH+ cancer stem cell population by FACS; type: cell-based
Method: FIGS. 6A-G. Skp2 inactivation diminishes cancer stem cell properties and heightens cancer cell sensitivity to chemotherapy. (FIG. 6A) Populations of ALDH^+ cells were determined by FACS analysis in PC3 cells treated with vehicle or compound #25. (FIG. 6B) Populations of ALDH^+ cells were determined by FACS analysis in PC3 cells with control or Skp2 knockdown. (FIG. 6C) Populations of ALDH^+ cells were determined by FACS analysis in PC3 cells with control or Skp2 knockdown treated with vehicle or compound #25. (FIG. 6D) Populations of ALDH^+ cells were determined by FACS analysis in PC3 cells with DMSO or LY294002. (FIG. 6E) Populations of ALDH^+ cells were determined by FACS analysis in LNCaP cells treated with DMSO, LY294002 or compound #25. (FIGS. 6F-G) Prostate sphere-formation assay in PC3 (FIG. 6F) and LNCaP (FIG. 6G) cells treated with DMSO, LY294002 or compound #25. Results are presented as mean values±S.D. ** indicates p<0.01.

[4] = Pharmacokinetic analysis, plasma and tumor distribution; type: in vivo, nude mice
Method: FIGS. 14A-C. Skp2 inhibitor restricts cancer cell proliferation and triggers apoptosis in prostate tumor xenografts. The quantification results (FIG. 14A) and representative images (FIG. 14B) of histological analysis of Ki-67, TUNEL, Skp2 and HE staining in PC3-driven tumor xenografts. “Low” indicates tumor xenografts treated with 40 mg/kg, while “high” indicates the xenografts treated with 80 mg/kg of compound #25. Scale bar indicates 100 μm. (FIG. 14C) Pharmacokinetic analysis of compound #25. Plasma and tumor distribution following IP injection of compound #25 to nude mice bearing PC3-driven tumor xenograft are analyzed. Three mice were evaluated at each time point. Results are represented as mean values±S.D.

[5] = test system: H3299 (lung); assay: Cell survival assay, H3299; type: cell-based, human
Method: as §1

[6] = test system: PC-3 cells; assay: Cell survival assay, PC-3; type: cell-based, human
Method: as §1

[7] = test system: EGF-mediated Akt phosphorylation and activation; assay: EGF-mediated Akt phosphorylation, immunoblotting; type: cell-based; details: various cancer cell lines
Text: Cells were lysed with RIPA buffer in the presence of protease inhibitor cocktail (Roche). The following antibodies were used for immunoblotting analysis: anti-Skp2 (Invitrogen), anti-Xpress (Invitrogen), anti-p27 (BD transduction laboratories), anti-p21 (Santa Cruz), anti-β-actin (Sigma), anti-α-tubulin (Sigma), anti-phospho-Akt (Thr308) (Cell Signaling), anti-phospho-Akt (Ser473) (Cell Signaling), and anti-HA (Convance). For immunohistochemistry, tissues were fixed in 10% formalin and embedded in paraffin in accordance with standard procedures. Sections were stained with anti-Skp2 (Invitrogen), anti-p27 (Epitomics), anti-phosphoAkt (SerS473) (Cell signaling), anti-Glut1 (Abcam), and anti-Ki67 (Abcam). TUNEL staining was performed by using in situ cell death detection kit-POD (Roche).

[8] = test system: normal prostate epithelial PNT1A cells; assay: Cell survival assay, PNT1A; type: cell-based
Method: as §1

[9] = biological target: T1, WT Skp2 (Homo sapiens, UniProt Q13309); assay: In vitro binding of compound to GST-Skp2 by LC-MS/MS; details: preexisting Skp2-Skp1 complex
T1 construct: made in house
Method: To corroborate this notion, the in vitro binding assay was performed to compare the binding affinity of compound #25 to WT Skp2 and Skp2 mutants (Trp97Ala and Asp98Ala) using LC-MS/MS analysis. Of note, since the nature of recombinant Skp2 protein was unstable in the absence of Skp1 (Li et al., 2005), the GST-Skp2 WT, GST-Skp2 Trp97Ala and GST-Skp2Asp98Ala mutants subjected to LC-MS/MS analysis were co-expressed, purified and preformed complex with Skp1 (FIG. 10A).

[10] = test system: U2OS (osteocarcinoma); assay: Cell survival assay, U2OS; type: cell-based, human
Method: as §1

[11] = test system: PC3 xenograft tumors; assay: PC3 tumor xenograft in nude mice; type: in vivo
Method: Nude mice bearing PC3 or A549 xenograft tumors (around 100 mm^3) were administrated with vehicle or 80 mg/kg compound #25 on a daily basis. Tumor size was measured weekly with a caliper, and tumor volume was determined with the standard formula: L×W2×0.52, where L is the longest diameter and W the shortest diameter.

T1 sequence (Q13309 whole entry): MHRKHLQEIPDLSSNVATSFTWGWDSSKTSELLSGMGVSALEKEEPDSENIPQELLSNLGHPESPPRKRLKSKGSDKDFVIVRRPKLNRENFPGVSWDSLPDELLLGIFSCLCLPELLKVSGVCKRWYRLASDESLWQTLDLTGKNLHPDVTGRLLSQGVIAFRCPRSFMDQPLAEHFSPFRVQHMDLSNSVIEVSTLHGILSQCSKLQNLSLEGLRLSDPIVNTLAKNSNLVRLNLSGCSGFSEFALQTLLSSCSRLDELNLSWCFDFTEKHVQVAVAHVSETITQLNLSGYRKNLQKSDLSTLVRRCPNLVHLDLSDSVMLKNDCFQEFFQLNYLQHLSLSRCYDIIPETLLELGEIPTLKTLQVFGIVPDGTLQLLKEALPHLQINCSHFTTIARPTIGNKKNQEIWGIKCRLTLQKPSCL

What does the source list for `CCc1cc2c(=O)c(-c3nc4ccccc4s3)coc2c(CN2CCCCC2)c1O` [compound #25, 3-(1,3-benzothiazol-2-yl)-6-ethyl-7-hydroxy-8-(1-piperidinylmethyl)-4H-chromen-4-one]?
cellular senescence [1]: triggered cellular senescence; cytotoxicity, lung cancer cells over lung fibroblast [2]: favorably triggered cytotoxicity in tumorigenic lung cancer cells over non-tumorigenic lung fibroblast; population of prostate CSCs [3]: reduce the population of prostate CSCs in a dose dependent manner; population of prostate CSCs upon Skp2 silencing ([3]; Skp2 silencing): failed to do so; time of maximum levels in blood ([4]; IP administration): 1 h; share of compound maintained in blood ([4]; for 6 h): up to 70%; concentration at 24 h ([4]; nude, mouse, blood, intraperitoneal, 24 h after administration, read-out: terminal concentration in blood): 126 ± 48 ng/mL; Cmax ([4]; nude, mouse, blood, IP administration): 1430 ± 1180 ng/mL; concentration at 24 h ([4]; nude, mouse, tumor, intraperitoneal, 24 h after initial administration, read-out: concentration remaining in tumor tissues): ~1160 ng/mL; concentration at 1 h ([4]; nude, mouse, tumor, intraperitoneal, within 1 h, read-out: concentration in tumors): 4790 ± 1970 ng/g; cell viability [5]: potent suppressive effect on viability; cell viability ([6]; PC-3): potent effects on cell viability; viability upon Skp2 silencing ([6]; Skp2-knockdown prostate cancer cells): inhibitory effect is compromised; viability of control-knockdown cells ([6]; control-knockdown prostate cancer cells): potent inhibitory effect; cell viability with ectopic Skp2 Trp97Ala or Asp98Ala ([6]; ectopic expression of Skp2 mutants): attenuated the inhibitory effect; EGF-mediated Akt phosphorylation and activation [7]: profoundly inhibited; cell viability [8]: only slightly affected; binding to WT Skp2 [9]: readily bound; cell viability [10]: potent suppressive effect on viability; prostate tumor growth in vivo ([11]; IP injection): potent effect; p27, p21, apoptosis, Akt activation and Glut1 in prostate tumor tissues ([11]; histological analysis): induced expression of p27 and p21, apoptosis, and suppressed Akt activation and Glut1 expression
